For one molecule, inhibition results are on record in ChEMBL document CHEMBL2169741, “Analysis of the discriminative inhibition of mammalian digestive lipases by 3-phenyl substituted 1,3,4-oxadiazol-2(3H)-ones” (Eur J Med Chem, 2012).

The assay deals with T1, Pancreatic lipase-related protein 2 (Cavia porcellus) (UniProt P81139).
T1 sequence (whole entry): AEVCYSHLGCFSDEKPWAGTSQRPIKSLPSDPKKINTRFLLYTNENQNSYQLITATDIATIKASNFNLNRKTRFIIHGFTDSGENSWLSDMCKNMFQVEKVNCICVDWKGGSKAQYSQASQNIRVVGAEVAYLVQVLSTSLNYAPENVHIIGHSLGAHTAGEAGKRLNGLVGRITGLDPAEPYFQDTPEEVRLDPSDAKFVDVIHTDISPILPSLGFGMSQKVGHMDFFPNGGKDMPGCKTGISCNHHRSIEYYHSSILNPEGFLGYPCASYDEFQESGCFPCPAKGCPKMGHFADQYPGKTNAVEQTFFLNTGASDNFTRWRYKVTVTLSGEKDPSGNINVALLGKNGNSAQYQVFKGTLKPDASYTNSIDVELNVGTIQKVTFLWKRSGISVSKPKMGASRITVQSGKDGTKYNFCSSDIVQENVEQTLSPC
Nature of the assay: Inhibition of recombinant GPLRP2 expressed in Aspergillus oryzae assessed as residual activity at 40 molar excess after 30 mins by mass spectrophotometric analysis in presence of NaTDC.

Calls of active or inactive are those of the source. The calls are words filed in the database; no cut-off is given here.

`COc1nn(-c2cccc(Oc3ccccc3)c2)c(=O)o1`: the inhibition entry is “Active”.
